Laboratory results taken from US20240327392A1, “HETEROCYCLOALKYL-SUBSTITUTED POLYHETEROAZOLE DERIVATIVES AS MEDICAMENTS FOR TREATING AND/OR PREVENTING RS VIRUS INFECTIONS” (ALBIUS SCIENCES ALPHA PRIVATE LIMITED, priority 2021, published 2024).

The compounds below were run on human RS virus A2 strain (assay: In vitro test for anti-RS virus proliferation inhibitory activity (quantitative RT-PCR of RS virus RNA copy number in infected Vero cells)). Settings: 72 h; Vero cells infected with human RS virus A2 strain, 3 days of incubation, RS virus N gene RNA copy number by quantitative RT-PCR; read-out: Anti-RS virus Activity.
Type: cell-based
Experimental: A mixture of Vero cells (3.4×10^5 cells/mL) and human RS virus A2 strain (1.7×10^4 TCID50/mL) (EMEM medium supplemented with 10% FCS) was added to a 96-well plate at 50 μL/well, and the 10% FCS-supplemented EMEM medium adjusted to the desired final concentration of the compounds to be tested was added at 50 μL/well, followed by incubating the plate at 37° C. in the presence of 5% CO2 at 37° C. After 3 days of incubation, the supernatant was removed, the cells were washed with PBS(−), and the cell lysis buffer supplied with the SingleShot (registered trademark) Cell Lysis Kit (Bio-Rad) was added dropwise at 50 μL/well to lysis the cells thereby providing the cell lysate.
Human RS virus RNA copy number in the cell lysate was determined by quantitative RT-PCR using iTaq Universal SYBR Green One-Step Kit (Bio-Rad). Specifically, primers targeting human RS virus N gene (Rameix-Welti et al, Nat Commun5: 5104, 2014. doi: 10.1038/ncomms6104) was used to prepare the reaction solution according to the instructions provided with the kit, and a 96-well PikoReal Real-Time PCR System (TCR0096, Thermo Fisher Scientific) was used to detect PCR reaction and signal assay.
The copy number was calculated by the relative method using the comparative Ct method using compound-free virus-infected cells as controls.

Structure (SMILES)	IC50 [µM]
CC(C)(C)OC(=O)N1C[C@H](O)C[C@H]1c1nc(CCCc2ccccc2)no1 [Compound 3-1, 3-(3-phenylpropyl)-5-[(2S,4R)-1-tert-butoxycarbonyl-4-hydroxypyrrolidin-2-yl]-1,2,4-oxadiazole]	> 50
O=S(=O)(Cc1ccccc1)N1C[C@H](O)C[C@H]1c1nc(CCCc2ccccc2)no1 [Compound 3E, 3-(3-phenylpropyl)-5-[(2S,4R)-1-benzylsulfonyl-4-hydroxypyrrolidin-2-yl]-1,2,4-oxadiazole]	10 to 50
O=S(=O)(C1CCCCC1)N1CCCC[C@H]1c1nc(CCCc2ccccc2)no1 [Compound 2B, 3-(3-phenylpropyl)-5-[(2S)-1-cyclohexylsulfonylpiperidin-2-yl]-1,2,4-oxadiazole]	< 10
CC(C)CS(=O)(=O)N1CCC[C@H]1c1nc(CCCc2ccccc2)no1 [Compound 1A, 3-(3-phenylpropyl)-5-[(2S)-1-isobutylsulfonylpyrrolidin-2-yl]-1,2,4-oxadiazole]	> 50

Same assay, conditions: 72 h; Vero cells infected with human RS virus A2 strain, 3 days of incubation, RS virus RNA copy number by quantitative RT-PCR; read-out: Anti-RS virus Activity

Structure (SMILES)	IC50 [µM]
O=C(c1ccccc1)N1CCCC[C@H]1c1nc(CCCc2ccccc2)no1 [Compound 2S, (S)-Phenyl(2-(3-(3-phenylpropyl)-1,2,4-oxadiazol-5-yl)piperidin-1-yl)methanone]	< 10
c1ccc(CCCc2noc([C@@H]3CCCCN3CCc3ccccc3)n2)cc1 [Compound 2AB, (S)-5-(1-phenethylpiperidin-2-yl)-3-(3-phenylpropyl)-1,2,4-oxadiazole]	10 to 50
N#C[C@H]1C[C@@H](c2nc(CCCc3ccccc3)no2)N(S(=O)(=O)c2ccc(F)cc2)C1 [Compound 41AJ, (3S,5S)-1-((4-fluorophenyl)sulfonyl)-5-(3-(3-phenylpropyl)-1,2,4-oxadiazol-5-yl)pyrrolidine-3-carbonitrile]	10 to 50
O=C(c1ccccc1)N1CCC[C@H]1c1nc(CCCc2ccccc2)no1 [Compound 1S, (S)-Phenyl(2-(3-(3-phenylpropyl)-1,2,4-oxadiazol-5-yl)pyrrolidin-1-yl)methanone]	< 10
CC(C)(C)OC(=O)N1CCC(CS(=O)(=O)N2CC3(CC3)C[C@H]2c2nc(CCCc3ccccc3)no2)CC1 [Compound 5AN, tert-buthyl (S)-4-(((6-(3-(3-phenylpropyl)-1,2,4-oxadiazole-5-yl)-5-azaspiro[2.4]heptan-5-yl)sulfonyl)methyl)piperidin-1-carboxylate]	< 10
CC(C)(C)OC(=O)N1C[C@H](c2ccccc2)C[C@H]1c1nc(Cc2ccccc2)no1 [Compound C1-7-1, Tert-butyl (2S,4S)-2-(3-benzyl-1,2,4-oxadiazol-5-yl)-4-phenylpyrrolidine-1-carboxylate]	< 10
O=C(NCc1cnc2ccccc2c1)N1[C@@H]2CC[C@@H](C2)[C@H]1c1nnc(Cc2cc3ccccc3[nH]2)[nH]1 [Compound 28AH]	10 to 50
O=S(=O)(C1CCCCC1)N1CC(c2ccccc2)C[C@H]1c1nc(CCCc2ccccc2)no1 (stereo in doubt) [Compound 7B, 3-(3-Phenylpropyl)-5-[(2S,4S)-1-cyclohexylsulfonyl-4-phenylpyrrolidin-2-yl]-1,2,4-oxadiazole]	< 10
COc1ccc(S(=O)(=O)N2C[C@H](c3ccccc3)C[C@H]2c2nc(CCCc3ccccc3)no2)cc1 [Compound 7AI, 5-((2S,4S)-1-((4-methoxyphenyl)sulfonyl)-4-phenylpyrrolidin-2-yl)-3-(3-phenylpropyl)-1,2,4-oxadiazole]	< 10
O=S(=O)(N1CCOCC1)N1CCCC[C@H]1c1nc(CCCc2ccccc2)no1 [Compound 2AE, (S)-4-((2-(3-(3-phenylpropyl)-1,2,4-oxadiazol-5-yl)piperidin-1-yl)sulfonyl)morpholine]	< 10
CC(C)CS(=O)(=O)N1[C@@H]2CC[C@@H](C2)[C@H]1c1nnc(CCc2ccncc2)[nH]1 [Compound 25A, (1R,3S,4S)-2-(isobutylsulfonyl)-3-(5-(2-(pyridin-4-yl)ethyl)-4H-1,2,4-triazol-3-yl)-2-azabicyclo[2.2.1]heptane]	10 to 50
CC(C)(C)OC(=O)N1CC2(CC2)C[C@H]1c1nc(CCCc2ccccc2)no1 [Compound 5-1, 3-(3-phenylpropyl)-5-{(6S)-5-tert-butoxycarbonyl-5-azaspiro[2.4]hept-6-yl}-1,2,4-oxadiazole]	< 10
CN(C)c1ccc(S(=O)(=O)N2CC(CC3CCC3)CC2c2nc(CCCc3ccccc3)no2)cc1 (centres unmarked) [Compound 6AK, 4-((4-(cyclobuthylmethyl)-2-(3-(3-phenylpropyl)-1,2,4-oxadiazole-5-yl)pyrrolidin-1-yl)sulfonyl)-N,N-dimethylaniline]	< 10
COC(=O)c1nc([C@@H]2CCCCN2S(=O)(=O)C2CCCCC2)sc1C [Compound 35B, Methyl (S)-2-(1-(cyclohexylsulfonyl)piperidin-2-yl)-5-methylthiazole-4-carboxylate]	10 to 50
O=S(=O)(N1CCCCC1)n1nc([C@H]2N[C@@H]3CC[C@H]2C3)nc1CCc1ccncc1 [25AD′]	10 to 50
O=S(=O)(Cc1ccccc1)N1CC2(CC2)C[C@H]1c1nc(CCCc2ccccc2)no1 [Compound 5E, 3-(3-Phenylpropyl)-5-{(6S)-5-benzylsulfonyl-5-azaspiro[2.4]hept-6-yl}-1,2,4-oxadiazole]	10 to 50

Structure (SMILES)	IC50 [µM]
O=C(Oc1ccccc1)N1CCC[C@H]1c1nc(CCCc2ccccc2)no1 [Compound 1M, Phenyl (S)-2-(3-(3-phenylpropyl)-1,2,4-oxadiazol-5-yl)pyrrolidine-1-carboxylate]	10 to 50
CC(C)(C)OC(=O)N1CCC[C@H]1c1nc(CCc2ccccc2)no1 [Compound 9-1, 3-(2-phenylethyl)-5-[(2S)-1-tert-butoxycarbonylpyrrolidin-2-yl]-1,2,4-oxadiazole]	> 50
O=S(=O)(C1CCOCC1)N1CC(CC2CCC2)CC1c1nc(CCCc2ccccc2)no1 (centres unmarked) [Compound 6AP, 5-(4-(cyclobuthylmethyl)-1-((tetrahydro-2H-pyran-4-yl)sulfonyl)pyrrolidin-2-yl)-3-(3-phenylpropyl)-1,2,4-oxadiazole]	< 10
CC(C)(C)OC(=O)NCc1noc([C@@H]2C[C@@H](c3ccccc3)CN2S(=O)(=O)c2ccc(F)cc2)n1 [Compound 43AJ, Tert-butyl ((5-((2S,4S)-1-((4-fluorophenyl)sulfonyl)-4-phenylpyrrolidin-2-yl)-1,2,4-oxadiazol-3-yl)methyl) carbamate]	10 to 50
CC(C)(C)OC(=O)N1CCCC[C@H]1c1nnc(CCCc2ccccc2)[nH]1 [Compound 20-1, Tert-butyl (S)-2-(5-(3-phenylpropyl)-4H-1,2,4-triazol-3-yl) piperidine-1-carboxylate]	< 10
O=S(=O)(C1CCCCC1)N1CCCCC1c1ncc(-c2ccccc2)[nH]1 (centres unmarked) [Compound 40B]	10 to 50
c1ccc(CCCc2noc([C@@H]3CCCCN3CC3CCCCC3)n2)cc1 [Compound 2U, (S)-5-(1-(cyclohexylmethyl)piperidin-2-yl)-3-(3-phenylpropyl)-1,2,4-oxadiazole]	< 10
O=S(=O)(N1CCCCC1)N1CC2(CC2)C[C@H]1c1nc(CCCc2ccccc2)no1 [Compound 5AD, (S)-3-(3-phenylpropyl)-5-(5-(piperidin-1-ylsulfonyl)-5-azaspiro[2.4]heptan-6-yl)-1,2,4-oxadiazole]	10 to 50
CC(C)(C)OC(=O)N1CCCC[C@H]1c1nc(CCc2ccccc2)no1 [Compound 10-1, 3-(3-phenylethyl)-5-[(2S)-1-tert-butoxycarbonylpiperidin-2-yl]-1,2,4-oxadiazole]	10 to 50
CC(C)(C)OC(=O)N1C[C@H](c2ccccc2)C[C@H]1c1nc(CCCCc2ccccc2)no1 [Compound C4-7-1, Tert-butyl (2S,4S)-4-phenyl-2-(3-(4-phenylbutyl)-1,2,4-oxadiazol-5-yl)pyrrolidine-1-carboxylate]	< 10
O=S(=O)(N1CCCCC1)N1C[C@H](F)C[C@H]1c1nc(CCCc2ccccc2)no1 [Compound 8AD, 5-((2S,4R)-4-fluoro-1-(piperidin-1-ylsulfonyl)pyrrolidin-2-yl)-3-(3-phenylpropyl)-1,2,4-oxadiazole]	10 to 50
O=C(OC1CCCC1)N1CCC[C@H]1c1nc(CCCc2ccccc2)no1 [Compound 1O, Cyclopentyl (S)-2-(3-(3-phenylpropyl)-1,2,4-oxadiazol-5-yl) pyrrolidine-1-carboxylate]	10 to 50
Cc1sc([C@@H]2CCCCN2S(=O)(=O)C2CCCCC2)nc1C(=O)NCc1ccccc1 [Compound 37B, (S)—N-Benzyl-2-(1-(cyclohexylsulfonyl)piperidin-2-yl)-5-methylthiazole-4-carboxamide]	< 10
CS(=O)(=O)N1CC(CC2CCC2)CC1c1nc(CCCc2ccccc2)no1 (centres unmarked) [Compound 6C, 3-(3-phenylpropyl)-5-(1-methanesulfonyl-4-cyclobutylmethylpyrrolidin-2-yl)-1,2,4-oxadiazole]	< 10
CC(C)(C)OC(=O)N1CCCC[C@H]1c1noc(CCc2ccccc2)n1 [Compound C2-16-1, Tert-butyl (S)-2-(5-phenethyl-1,2,4-oxadiazol-3-yl) piperidine-1-carboxylate]	10 to 50
